Patent US4923862A, “Topical preparation containing ofloxacin” (priority 1986, dated 1990)
Read-outs that look alike come from different tables or passages of the source.

What was measured:
[1] = U.S. Pat. No. 4,382,892; Antimicrobial Agent & Chemotherapy, Vol. 29, 163-164 (1986); cited from earlier work
[2] = test system: mice; assay: Acute toxicity in mice; conditions: p.o.
[3] = Stability of S-compound in aqueous solution; type: physicochemical; conditions: 0.5% (wt./vol.) aqueous solution, pH 3 to 10, 2 weeks
[4] = Antimicrobial activity of Ofloxacin and S-compound (general statement); conditions: compared with Ofloxacin

Compound | antimicrobial activities [1] | LD50 (acute toxicity) [2] | decomposition (residual amount of S-compound) [3] | antimicrobial activities [4]
CC1COc2c(N3CCN(C)CC3)c(F)cc3c(=O)c(C(=O)O)cn1c23 (racemic) [Ofloxacin, (±)-9-fluoro-3-methyl-10-(4-methyl-1-piperazinyl)-7-oxo-2,3-dihydro-7H-pyrido[1,2,3de][1,4]benzoxazine-6-carboxylic acid] | excellent antimicrobial agent | 5450 mg/kg | – | –
C[C@H]1COc2c(N3CCN(C)CC3)c(F)cc3c(=O)c(C(=O)O)cn1c23 [S-compound, S-(-)-9-fluoro-3-methyl-10-(4-methyl-1-piperazinyl)-7-oxo-2,3-dihydro-7H-pyrido[1,2,3de][1,4]benzoxazine-6-carboxylic acid] | potential antimicrobial activities | – | no decomposition was observed at all | high antimicrobial activities
